Experimental data taken from patent US20130197085A1, “AGENT AND METHOD FOR STABILIZING MEMBRANE PROTEIN” (priority 2007, published 2013).

Experiments:
D482G BSEP [1] = target: T1, D482G BSEP (Homo sapiens, UniProt O95342, D482G/L339V); test: Transcellular transport assay of [^3H] TC across MDCKII monolayer; format: cell-based; conditions: 24 hours
T1 construct: expressed in transfected cells; host or cells: MDCKII cells infected with recombinant adenovirus
Experimental: (§1) MDCKII cells were dispersed on a Transwell membrane insert (pore size: […]; Falcon) of a 24-well plate, resulting in a density of 1.5×10^5 cells/insert. Two days after the culture, the confluent cells were infected with recombinant adenoviruses having the cDNAs of wild-type, E297G and D482G BSEPs, and GFP, at 50 MOI. […] After completion of the treatment for 24 hours, a transcellular transport assay was carried out (see Mita et al., Am J Physiol Gastrointest Liver Physiol 290: G550-G556, 2006).
(§2) The apparent efflux clearance across the apical membrane (PSapical) was calculated by dividing a steady rate of the transcellular transport of [^3H] TC for 2 hours by the intracellular concentration of the [^3H] TC at the termination of the experiment (2 hours later).

wild-type BSEP [2] = target: T2, wild-type BSEP (Homo sapiens, UniProt O95342, L339V); test: as above; format: cell-based; conditions: 24 hours
T2 construct: expressed in transfected cells; host or cells: MDCKII cells infected with recombinant adenovirus
Experimental: as §1, §2

E297G BSEP [3] = target: T3, E297G BSEP (Homo sapiens, UniProt O95342, E297G/L339V); test: as above; format: cell-based; conditions: 24 hours
T3 construct: expressed in transfected cells; host or cells: MDCKII cells infected with recombinant adenovirus
Experimental: as §1, §2

E297G BSEP mRNA = test: Measurement of BSEP mRNA level by real-time quantitative PCR in MDCKII cells; format: cell-based, human; conditions: 1 mM 4PBA, 24 hours; not statistically significant (P=0.20)
Experimental: (§3) MDCKII cells were dispersed on a 6-well plate, resulting in a density of 2.5×10^5 cells/well. After completion of the culture for 24 hours, the confluent cells were infected with recombinant adenoviruses having the cDNAs of wild-type, E297G and D482G BSEPs, and GFP, at 50 MOI. After completion of the infection, the cells were cultured for 24 hours. Thereafter, the cultured cells were treated with 1 mM 4PBA. After completion of the treatment for 24 hours, RNA was isolated using ISOGEN (Wako Pure Chemical Industries, Ltd.) in accordance with an instruction manual included therewith. A DNaseI treatment was carried out at 37° C. for 1 hour, and a reverse transcription reaction was then carried out (see Hayashi et al., Hepatology, 41: 916-924, 2005). The BSEP mRNA level was measured by real-time quantitative PCR according to an ordinary method. The quantitative PCR was carried out using the following primers.
(§4) It is to be noted that the expression of a BSEP gene in each reaction was standardized by the expression of GAPDH.

wild-type BSEP mRNA = test: as above; format: cell-based, human; conditions: 1 mM 4PBA, 24 hours; not statistically significant (P=0.10)
Experimental: as §3, §4

D482G BSEP mRNA = test: as above; format: cell-based, human; conditions: 1 mM 4PBA, 24 hours; not statistically significant (P=0.20)
Experimental: as §3, §4

D482G BSEP [4] = target: T1, D482G BSEP; test: Cell surface biotinylation method, expression on the surface of MDCKII cells; format: cell-based; conditions: 1 mM, 24 hours
Experimental: (§5) MDCKII cells were dispersed on a 6-well plate, resulting in a density of 2.5×10^5 cells/well. After completion of the culture for 24 hours, the confluent cells were infected with recombinant adenoviruses having the cDNAs of wild-type, E297G and D482G BSEPs, and GFP, at 200 MOI. After completion of the infection, the cells were cultured for 24 hours. […] After completion of the treatment for 24 hours, the cells were biotinylated (see Hayashi et al., Hepatology, 41: 916-924, 2005).

wild-type BSEP [5] = target: T2, wild-type BSEP; test: as above; format: cell-based; conditions: 1 mM, 24 hours
Experimental: as §5

E297G BSEP [6] = target: T3, E297G BSEP; test: as above; format: cell-based; conditions: 1 mM, 24 hours
Experimental: as §5

[7] = test system: intrinsic dipeptidyl peptidase IV (DPPIV); test: as above; format: cell-based; conditions: 1 mM, 24 hours
Experimental: as §5

CFTRΔF508 = CFTRΔF508 (Homo sapiens, UniProt P13569, DEL508-508); conditions: Non-Patent Document 2; cited from earlier work
extrinsic P-gp = test: Cell surface biotinylation method, expression on the surface of MDCKII cells; format: cell-based; conditions: 1 mM, 24 hours
[8] = 1 mM, PSapical minus PSapical of GFP cells

T3 sequence (O95342 whole entry E297G/L339V): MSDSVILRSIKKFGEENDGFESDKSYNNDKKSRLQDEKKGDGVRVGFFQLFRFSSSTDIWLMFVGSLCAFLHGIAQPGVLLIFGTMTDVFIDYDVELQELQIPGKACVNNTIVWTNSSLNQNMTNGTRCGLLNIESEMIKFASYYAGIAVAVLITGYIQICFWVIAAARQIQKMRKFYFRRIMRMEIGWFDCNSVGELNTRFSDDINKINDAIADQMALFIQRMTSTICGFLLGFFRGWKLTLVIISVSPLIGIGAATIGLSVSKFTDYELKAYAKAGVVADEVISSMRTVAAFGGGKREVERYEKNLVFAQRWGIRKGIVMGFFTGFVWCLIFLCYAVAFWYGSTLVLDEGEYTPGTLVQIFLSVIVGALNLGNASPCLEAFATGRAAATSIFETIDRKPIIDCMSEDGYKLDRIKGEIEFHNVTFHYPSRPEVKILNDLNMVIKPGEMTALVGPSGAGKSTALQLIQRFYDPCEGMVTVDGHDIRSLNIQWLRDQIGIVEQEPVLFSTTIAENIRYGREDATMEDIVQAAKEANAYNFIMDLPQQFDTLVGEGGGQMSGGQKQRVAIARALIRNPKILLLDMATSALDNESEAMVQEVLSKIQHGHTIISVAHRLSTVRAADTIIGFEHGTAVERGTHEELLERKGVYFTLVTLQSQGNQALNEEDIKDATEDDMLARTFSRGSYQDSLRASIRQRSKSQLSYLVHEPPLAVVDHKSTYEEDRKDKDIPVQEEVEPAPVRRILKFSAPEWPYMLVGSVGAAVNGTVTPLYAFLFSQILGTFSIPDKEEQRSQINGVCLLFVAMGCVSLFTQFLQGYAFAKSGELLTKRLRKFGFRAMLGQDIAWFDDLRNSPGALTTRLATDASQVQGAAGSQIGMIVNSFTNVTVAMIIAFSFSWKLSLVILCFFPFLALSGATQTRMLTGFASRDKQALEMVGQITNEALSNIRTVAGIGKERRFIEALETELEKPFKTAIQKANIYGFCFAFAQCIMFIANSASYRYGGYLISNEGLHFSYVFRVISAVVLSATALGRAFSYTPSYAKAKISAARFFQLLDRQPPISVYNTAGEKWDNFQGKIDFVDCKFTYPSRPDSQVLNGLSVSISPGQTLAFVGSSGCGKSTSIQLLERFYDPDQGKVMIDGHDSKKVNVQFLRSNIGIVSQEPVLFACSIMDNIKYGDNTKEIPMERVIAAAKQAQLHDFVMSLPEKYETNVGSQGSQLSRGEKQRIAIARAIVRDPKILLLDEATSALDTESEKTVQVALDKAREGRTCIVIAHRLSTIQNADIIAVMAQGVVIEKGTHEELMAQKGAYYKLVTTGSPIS
T2 sequence (O95342 whole entry L339V): as the sequence (O95342 whole entry E297G/L339V) above, with G297E counted along it
T1 sequence (O95342 whole entry L339V/D482G): as the sequence (O95342 whole entry E297G/L339V) above, with G297E, D482G counted along it
Chain of CFTRΔF508 (P13569 with tags, fused parts or gaps DEL508-508): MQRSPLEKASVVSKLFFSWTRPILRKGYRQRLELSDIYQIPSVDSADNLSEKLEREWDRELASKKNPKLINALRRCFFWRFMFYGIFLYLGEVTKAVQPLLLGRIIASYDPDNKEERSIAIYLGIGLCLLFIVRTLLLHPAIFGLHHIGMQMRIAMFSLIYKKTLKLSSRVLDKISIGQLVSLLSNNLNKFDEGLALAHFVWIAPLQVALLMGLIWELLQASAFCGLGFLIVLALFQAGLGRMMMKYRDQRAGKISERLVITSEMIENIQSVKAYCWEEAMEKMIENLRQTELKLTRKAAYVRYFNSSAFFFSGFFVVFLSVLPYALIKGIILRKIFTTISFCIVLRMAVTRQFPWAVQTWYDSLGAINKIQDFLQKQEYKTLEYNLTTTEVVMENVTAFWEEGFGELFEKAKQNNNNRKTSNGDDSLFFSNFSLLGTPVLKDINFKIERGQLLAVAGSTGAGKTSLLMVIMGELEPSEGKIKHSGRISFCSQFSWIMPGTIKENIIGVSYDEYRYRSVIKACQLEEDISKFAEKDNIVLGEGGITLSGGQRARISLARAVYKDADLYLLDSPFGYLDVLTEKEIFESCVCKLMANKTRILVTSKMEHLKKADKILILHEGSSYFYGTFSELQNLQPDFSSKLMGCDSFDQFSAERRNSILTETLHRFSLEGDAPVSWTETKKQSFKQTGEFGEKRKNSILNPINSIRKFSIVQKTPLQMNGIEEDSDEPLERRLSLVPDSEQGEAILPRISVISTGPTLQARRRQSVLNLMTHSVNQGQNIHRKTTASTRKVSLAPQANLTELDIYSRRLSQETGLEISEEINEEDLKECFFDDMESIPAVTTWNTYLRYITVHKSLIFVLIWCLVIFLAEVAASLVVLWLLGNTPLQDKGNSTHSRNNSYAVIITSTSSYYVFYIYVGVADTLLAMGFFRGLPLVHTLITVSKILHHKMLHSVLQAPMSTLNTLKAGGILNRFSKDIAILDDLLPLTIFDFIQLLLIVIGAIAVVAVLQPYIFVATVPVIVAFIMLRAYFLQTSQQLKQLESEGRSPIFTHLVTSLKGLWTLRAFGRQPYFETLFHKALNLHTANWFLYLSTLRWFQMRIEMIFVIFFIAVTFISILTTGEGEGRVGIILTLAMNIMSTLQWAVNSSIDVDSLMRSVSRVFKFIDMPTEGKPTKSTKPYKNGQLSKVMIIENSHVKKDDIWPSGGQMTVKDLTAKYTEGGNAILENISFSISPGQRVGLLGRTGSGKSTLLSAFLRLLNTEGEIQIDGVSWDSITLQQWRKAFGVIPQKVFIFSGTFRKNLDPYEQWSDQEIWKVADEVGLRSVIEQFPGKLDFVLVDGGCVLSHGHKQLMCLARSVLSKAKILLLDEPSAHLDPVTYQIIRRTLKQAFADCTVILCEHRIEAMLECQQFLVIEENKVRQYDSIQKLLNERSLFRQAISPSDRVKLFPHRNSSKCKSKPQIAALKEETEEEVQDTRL

SMILES: O=C(O)CCCc1ccccc1 [4PBA, 4-phenylbutyric acid]
- efflux of [^3H] TC from the apical side to the base side (D482G BSEP [1]; 1 mM, MDCKII monolayer): did not influence
- efflux of [^3H] TC from the base side to the apical side, increase (D482G BSEP [1]; 1 mM, MDCKII monolayer): 3 times
- BSEP-dependent PSapical value (PSapical, BSEP), increase (D482G BSEP [1]; [8]): 2.8 times
- PSapical value (D482G BSEP [1]; 4PBA treatment 1 mM): increased
- efflux of [^3H] TC from the apical side to the base side (wild-type BSEP [2]; 1 mM, MDCKII monolayer): did not influence
- efflux of [^3H] TC from the base side to the apical side, increase (wild-type BSEP [2]; 1 mM, MDCKII monolayer): 1.5 times
- BSEP-dependent PSapical value (PSapical, BSEP), increase (wild-type BSEP [2]; [8]): 1.7 times
- PSapical value (wild-type BSEP [2]; 4PBA treatment 1 mM): increased
- efflux of [^3H] TC from the apical side to the base side (E297G BSEP [3]; 1 mM, MDCKII monolayer): did not influence
- efflux of [^3H] TC from the base side to the apical side, increase (E297G BSEP [3]; 1 mM, MDCKII monolayer): 2.5 times
- BSEP-dependent PSapical value (PSapical, BSEP), increase (E297G BSEP [3]; [8]): 3.0 times
- PSapical value (E297G BSEP [3]; 4PBA treatment 1 mM): increased
- expression level of BSEP mRNA standardized by GAPDH mRNA (E297G BSEP mRNA): slightly increased
- expression level of BSEP mRNA standardized by GAPDH mRNA (wild-type BSEP mRNA): slightly increased
- expression level of BSEP mRNA standardized by GAPDH mRNA (D482G BSEP mRNA): slightly increased
- expression level on the cell surface, increase (D482G BSEP [4]): 2.6 times
- expression level on the cell surface, increase (wild-type BSEP [5]): 1.8 times
- expression level on the cell surface, increase (E297G BSEP [6]): 3.1 times
- expression of intrinsic DPPIV [7]: not influenced
- expression of CFTRΔF508 on the cell membrane (CFTRΔF508): recovers its expression on the cell membrane
- expression of extrinsic P-gp (extrinsic P-gp): not influenced
